Entries after “also recorded” stand apart in the source; their conditions may differ. Like-named read-outs stand apart in the source and are kept apart here. Numbered stars: 1 amine (or outer) side, 2 acyl side, 3 side chain; on linkers, the order of the positions; unused ones are H or OH. Peptide text beside a SMILES is read from it. Suc = O=C(CCC(=O)[*:2])[*:1]
How the values were obtained:
rat model of pMACO [1] = assay: Foot fault test in rat model of pMACO; type: in vivo, SD rats; details: BX34 7 µg/Kg, BX48 5 µg/Kg
Excerpt: Male SD rats weighing 280-300 g were used and acclimated for at least 3 days. Focal cerebral ischemia was induced by middle cerebral artery occlusion with a suture method under isoflurane anesthesia. The animals were placed in a secure supine position, and a midline incision was made to expose the right common carotid artery, external carotid artery, and internal carotid artery. A 4.0 monofilament nylon suture was advanced from the external carotid artery toward the internal carotid artery lumen until resistance was felt ( ~ 20 mm), indicating middle cerebral artery occlusion. The nylon filament was allowed to stay in place to create a permanent model of focal cerebral ischemia. Successfully modeled rats were randomly assigned to four groups: a solvent (normal saline) group (n=10), a 7 µg/Kg BX-34 group (n=10), a 5 µg/Kg BX-48 group (n=10), and a 5 µg/Kg IRL1620 group (n=10). Each group was administered once at 2 hours, 4 hours, and 6 hours, respectively, after modeling, for a total of three administrations. Grip strength was measured before administration and at 24 hours and on D3 and D7 after administration. A rotarod test and a foot fault test were performed before administration and at 24 hours and day 7 after administration. During the rotarod test, time and distance were recorded, and ratios of the measurement at 24 hours and the measurement at D7 to the pretest measurement were used as analysis indicators. The specific method for the foot fault test was as follows. The rats were placed on an elevated grid floor (29×29 cm, grid opening: 3 cm^2) for 2 minutes, and the number of foot faults (when a forelimb fell through the grid) and the total steps were recorded. % Foot fault = (the number of forelimb faults/the total number of forelimb steps) × 100.

in vivo = details: male, SD, rat, in vivo, iv
How it was run: (§1)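 Male SD rats (200-230 g) given single tail-vein injections, descending doses from 480 µg/Kg to 30 µg/Kg. Toxic response, mortality and time of death recorded; acute toxicity level preliminarily set from doses without mortality.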

male SD rats [2] = assay: in vivo; details: one animal per row, observed 24 hours
How it was run: as §1

male SD rats [3] = details: one animal per row, observed 48 hours
rat model of pMACO [4] = assay: mRS-6 scoring in rat model of pMACO; type: in vivo, SD rats; design: mRS-7D / mRS-14D / mRS-21D / mRS-30D: scale not given here; details: 3Time regimen: IRL1620 5 µg/Kg, BX225 6.6 µg/Kg
Excerpt: (§2) Male SD rats, weighing 280-300 g, were used and acclimatized for at least 3 days. Focal cerebral ischemia was induced by middle cerebral artery occlusion with a suture method under isoflurane anesthesia. The animals were placed in a supine position, a midline incision was made, and the right common carotid artery, external carotid artery, and internal carotid artery were exposed. A 4.0 monofilament nylon suture was advanced from the external carotid artery toward the internal carotid artery lumen until resistance was felt (~20 mm), indicating middle cerebral artery occlusion. The nylon filament was allowed to stay in place to create a permanent model of focal cerebral ischemia. The day of modeling was defined as D1, the next day as D2, and so on. Since the experiment was not be completed in a single batch, and in order to prevent accidental errors, all operations in this experiment had to follow the principle of parallel operation, i.e., the experiment on each day needed to include animals from each group. Sequential numbering for surgical modeling was obtained by sorting the animals according to their body weight before the experiment. After the surgery, successfully modeled pMCAO rats were randomly assigned into a model group and various treatment groups. The detailed grouping of the experiment was as follows: (1) 15 rats in the 5 µg/Kg IRL1620 group with 9 administrations over 3 days; (2) 15 rats in the 6.6 µg/Kg BX225 group with 9 administrations over 3 days; (3) 15 rats in the 19.8 µg/Kg BX225 group with 3 administrations over 3 days; (4) 15 rats in the model (normal saline) group; and (5) 6 rats in the sham group (the sham group underwent the same procedure without vascular ligation and suture insertion). The administration was performed via tail vein injection (iv) with an administration volume of 2 mL/kg. The first administration was 2 hours after the surgery. Administration frequencies were single and multiple administrations per day according to the experimental design. Administrations were performed on D1, D3, and D6, respectively, as detailed in Table 22. The model group and the sham group were given the same volume of vehicle normal saline.

rat model of pMACO [5] = assay: Garcia JH scoring in rat model of pMACO; type: in vivo, SD rats; design: 5 min Spontaneous Activity / Body Symmetry / Forelimb Extension Movement / Cage Climbing / Body Tactile Response on Both Sides / Beard Touch Reaction on Both Sides / Total Score: scale not given here; details: Garcia JH score, Day 21; 3Time regimen: IRL1620 5 µg/Kg, BX225 6.6 µg/Kg
Excerpt: as §2

Q: For `CC[C@H](C)[C@H](NC(=O)[C@H](CC(=O)O)NC(=O)[C@H](CC(C)C)NC(=O)[C@H](Cc1c[nH]cn1)NC(=O)[C@H](C)NC(=O)[C@H](Cc1ccccc1)NC(=O)[C@H](Cc1ccc(O)cc1)NC(=O)[C@@H](NC(=O)[C@H](C)NC(=O)[C@H](CCC(=O)O)NC(=O)[C@H](CCC(=O)O)NC(=O)[C@H](CC(=O)O)NC(=O)CCC(=O)O)C(C)C)C(=O)N[C@H](C(=O)N[C@@H](Cc1c[nH]c2ccccc12)C(=O)O)[C@@H](C)CC` [IRL1620, reference compound] (Suc-DEEAVYFAHLDIIW-OH), which “Foot fault Analysis Mean of 7D” value (rat model of pMACO [1]; percentage of foot faults at 7D, IRL1620 5 µg/Kg, administered 3 times (2, 4, 6 hours after modeling)) is on record?
A: The value was 4.3%+3.14%.

Q: And the “Foot fault Analysis Mean of 24h” value (rat model of pMACO [1]; percentage of foot faults at 24h, IRL1620 5 µg/Kg, administered 3 times (2, 4, 6 hours after modeling))?
A: Its value is 14.2%±17.61%.

Q: And the “Foot fault Analysis Mean of Pretest” value (rat model of pMACO [1]; percentage of foot faults, pretest (baseline before administration), groups IRL1620 5 µg/Kg, 3 times)?
A: Its value is 1%±2%.

Q: What about the MTD at 24 h (in vivo) of the same molecule?
A: The MTD at 24 h was 0.03 mg/kg.

Q: And the “Observations of Animal Status” value (male SD rats [2]; intravenous (tail vein) 30 µg/Kg)?
A: Its value is “Developed rapid breathing at 13 minutes, showed no willingness to move at 30 minutes; recovered at 1.5 hours; also recorded: Developed rapid breathing at 15 minutes, showed no willingness to move at 25 minutes; recovered at 1.5 hours; also recorded: Lay still at 25 minutes, showed no willingness to move at 1.5 hours; found dead the next morning (estimated to have died during the night)”.

Q: What about the “Observations of Animal Status” value (male SD rats [2]; intravenous (tail vein) 60 µg/Kg) of the same molecule?
A: The value was “Developed rapid breathing at 3 minutes; died at 8 minutes”.

Q: What about the “Observations of Animal Status” value (male SD rats [2]; intravenous (tail vein) 120 µg/Kg) of the same molecule?
A: Its value is “Developed rapid breathing and the body turned purple at 5 minutes; died at 9 minutes”.

Q: What about the “Observations of Animal Status” value (male SD rats [3]; subcutaneous 60 µg/Kg) of the same molecule?
A: Its value is “Developed rapid breathing at 25 minutes after administration, recovered after 15 minutes; also recorded: Developed rapid breathing at 26 minutes after administration, recovered after 16 minutes; also recorded: Developed rapid breathing at 30 minutes after administration, recovered after 17 minutes; also recorded: Developed rapid breathing at 25 minutes after administration, recovered after 16 minutes”.

Q: And the “Observations of Animal Status” value (male SD rats [3]; subcutaneous 120 µg/Kg)?
A: The value was “Developed rapid breathing at 27 minutes after administration, gradually recovered after 50 minutes; also recorded: Developed rapid breathing at 26 minutes after administration and lasted for 23 minutes; then died; also recorded: Developed rapid breathing at 26 minutes after administration, gradually recovered after 50 minutes; also recorded: Developed rapid breathing at 28 minutes after administration, gradually recovered after 50 minutes”.

Q: And the mRS-7D (rat model of pMACO [4]; day 7)?
A: The mRS-7D was 2.54±2.03.

Q: And the mRS-14D (rat model of pMACO [4]; day 14)?
A: The mRS-14D was 2.77±2.66.

Q: And the mRS-21D (rat model of pMACO [4]; day 21)?
A: The mRS-21D was 2.72±2.71.

Q: And the mRS-30D (rat model of pMACO [4]; day 30)?
A: Its mRS-30D is 2.52±2.87.

Q: And the “5 min Spontaneous Activity” value (rat model of pMACO [5])?
A: The value was 1.77±1.48.

Q: What about the “Beard Touch Reaction on Both Sides” value (rat model of pMACO [5]) of the same molecule?
A: Its value is 1.95±0.82.

Q: What about the “Body Symmetry” value (rat model of pMACO [5]) of the same molecule?
A: Its value is 0.90±0.80.

Q: What about the “Body Tactile Response on Both Sides” value (rat model of pMACO [5]) of the same molecule?
A: The value was 1.79±0.70.

Q: And the “Cage Climbing” value (rat model of pMACO [5])?
A: The value was 2.03± 0.86.

Q: What about the “Forelimb Extension Movement” value (rat model of pMACO [5]) of the same molecule?
A: The value was 1.26±1.05.

Q: And the “Total Score” value (rat model of pMACO [5])?
A: Its value is 9.70± 5.58.
